# Source: patent US20250367191A1, “TREATMENT OF MITOCHONDRIAL DISEASES WITH A CNS-PENETRANT SGC STIMULATOR ZAGOCIGUAT” (Tisento Therapeutics Inc., priority 2022, published 2025)
# Legend:
# [1] = Open-label single-arm study in MELAS (NCT04475549): safety and tolerability; type: in vivo, human; settings: 15 mg QD for 29 days, patients with MELAS
# Description: This study was completed at 5 investigative sites in the United States. 8 participants completed the study. This study was an open-label, single-arm study evaluating the safety, tolerability, PK, and pharmacodynamics (PD) of Compound I when administered for up to 29 days to participants diagnosed with MELAS. Because this was the first study evaluating Compound I in a patient population, the primary objective was safety and tolerability. The overall study duration for participants was a maximum of 75 days, including the screening, treatment and follow up periods (ClinicalTrials.gov identifier NCT04475549).
# The primary objective of the trial was to evaluate the safety and tolerability of Compound I when administered to a patient population of subjects with MELAS, by measuring AEs, SAEs and TEAEs leading to drug discontinuation.
# Compound I is a CNS-active investigational drug. Although Compound I and other similar drugs in this class have not been associated with an increased risk of suicidal thinking or behavior, it was considered it important to monitor for such ideation or behavior before and during this clinical study. Therefore, participants were appropriately monitored and closely observed for suicidal ideation and behavior or any other unusual change in behavior. […]
# A complete physical examination was to include examination and assessment of the following: general appearance, lymph nodes, nervous system; cardiovascular system; head, eyes, ears, nose, throat and skin; respiratory system, neck, mental status, abdomen/liver/spleen and musculoskeletal system. […] Clinically relevant findings that were present before study drug initiation on Day 1 were recorded as part of the participant's medical history. Beginning after study drug initiation on Day 1, new clinically relevant findings or worsening of an earlier finding were recorded as an AE. Height (cm) was measured only at Screening. Weight (kg) was recorded throughout the study. Body mass index was calculated and recorded at Screening.
# All BP and pulse measurements were obtained with an automated BP device (left arm was preferred) prior to blood draws (or ≥10 m after a blood draw, if necessary). Supine BP was taken at Screening (only) and recorded as the average of 2 measurements obtained at 2-minute intervals after the participant had rested quietly in a semi-recumbent/supine position for ≥5 minutes. Orthostatic vital signs were taken at all scheduled visits and participant was to rest quietly in a supine/semi-recumbent position for ≥5 minutes before supine BP and pulse measurements were recorded, then assume sitting position for ≥1 minute, and finally assume a standing position for 2 (±1) minutes before standing measurements were recorded. […]
# [2] = system: participants diagnosed with MELAS; test: MELAS study: fMRI-BOLD during resting state and visual stimulus; type: in vivo, human
# Experimental: Two exploratory functional neuroimaging modalities, arterial spin labeling (ASL) and functional magnetic resonance imaging (fMRI), were used to measure the potential PD effects of Compound I in the brain. While ASL quantifies regional CBF during the resting state, fMRI is a relative measure based on the blood-oxygen-level-dependent (BOLD) effect and was conducted during both a resting state and during a visual stimulus to measure brain activity.
# Each individual MRI scanning session took approximately 45 minutes (maximum of ˜1 hour).
# healthy elderly subjects = settings: cited from earlier work
# [3] = two weeks, 15 mg QD, compared with placebo
smiles,measurement,setting,value
"Fc1ccccc1Cc1nc(-c2nc(C(F)(F)F)n[nH]2)cn2ccnc12 [Compound I, zagociguat]",SAEs,[1],no SAEs observed
same,adverse events leading to treatment discontinuation,[1],no adverse events leading to treatment discontinuation
same,"safety signals on clinical labs, vital signs, ECGs, or suicidal rating scale",[1],No safety signals
same,tolerability,[1],well tolerated
same,"task-based functional MRI (visual activation, flashing checkerboard)",[2]; Day 29 compared to screening and Day 1,increased activation of voxels in the occipital region
same,"task-free functional MRI during resting state, connectivity",[2]; Day 29 compared to screening and day 1,enhanced connecitivity
same,N200 auditory event-related potential (ERP) latencies,"healthy elderly subjects; healthy elderly, 15 mg QD",shortening
same,gamma power (EEG),"healthy elderly subjects; healthy elderly, 15 mg QD",trend increases in gamma power
same,posterior alpha power (EEG),"healthy elderly subjects; healthy elderly, 15 mg QD",increases in posterior alpha power
same,"neuroimaging by ASL and fMRI BOLD, MRS measurements, NeuroCart CNS function assessments",healthy elderly subjects; healthy elderly,No changes were observed
same,CSF concentration of Alpha 2 macroglobulin (A2M),healthy elderly subjects; [3],potentially important reductions
same,CSF concentration of complement C3 (C3),healthy elderly subjects; [3],potentially important reductions
